ChEMBL document CHEMBL1649134, “Occurrence of efflux mechanism and cephalosporinase variant in a population of Enterobacter aerogenes and Klebsiella pneumoniae isolates producing extended-spectrum beta-lactamases” (2009)
Converted amounts (≈) assume the structure as drawn.

How the values were obtained:
Type in all cases: functional
[1] = test system: Klebsiella aerogenes; assay: Antimicrobial activity against multidrug resistant Enterobacter aerogenes isolate 17 by broth dilution method
[2] = test system: Klebsiella aerogenes; assay: Antimicrobial activity against multidrug resistant Enterobacter aerogenes isolate 8 by broth dilution method in presence of 26.3 mg/L efflux pump inhibitor phenylalanine-arginine-beta-naphthylamide
[3] = test system: Klebsiella pneumoniae; assay: Antimicrobial activity against multidrug resistant Klebsiella pneumoniae isolate 12 by broth dilution method in presence of 26.3 mg/L efflux pump inhibitor phenylalanine-arginine-beta-naphthylamide
[4] = test system: Klebsiella aerogenes; assay: Antimicrobial activity against multidrug resistant Enterobacter aerogenes isolate 1 by broth dilution method
[5] = test system: Klebsiella aerogenes; assay: Antimicrobial activity against multidrug resistant Enterobacter aerogenes isolate 20 by broth dilution method
[6] = test system: Klebsiella aerogenes; assay: Antimicrobial activity against multidrug resistant Enterobacter aerogenes isolate 16 by broth dilution method
[7] = test system: Klebsiella aerogenes; assay: Antimicrobial activity against multidrug resistant Enterobacter aerogenes isolate 15 by broth dilution method
[8] = test system: Klebsiella aerogenes; assay: Antimicrobial activity against multidrug resistant Enterobacter aerogenes isolate 14 by broth dilution method
[9] = test system: Klebsiella aerogenes; assay: Antimicrobial activity against multidrug resistant Enterobacter aerogenes isolate 9 by broth dilution method in presence of 26.3 mg/L efflux pump inhibitor phenylalanine-arginine-beta-naphthylamide
[10] = test system: Klebsiella aerogenes; assay: Antimicrobial activity against multidrug resistant Enterobacter aerogenes isolate 25 by broth dilution method in presence of 26.3 mg/L efflux pump inhibitor phenylalanine-arginine-beta-naphthylamide
[11] = test system: Klebsiella aerogenes; assay: Antimicrobial activity against multidrug resistant Enterobacter aerogenes isolate 15 by broth dilution method in presence of 26.3 mg/L efflux pump inhibitor phenylalanine-arginine-beta-naphthylamide
[12] = test system: Klebsiella pneumoniae; assay: Antimicrobial activity against multidrug resistant Klebsiella pneumoniae isolate 3 by broth dilution method in presence of 26.3 mg/L efflux pump inhibitor phenylalanine-arginine-beta-naphthylamide
[13] = test system: Klebsiella aerogenes; assay: Antimicrobial activity against multidrug resistant Enterobacter aerogenes isolate 3 by broth dilution method
[14] = test system: Klebsiella aerogenes; assay: Antimicrobial activity against multidrug resistant Enterobacter aerogenes isolate 24 by broth dilution method
[15] = test system: Klebsiella aerogenes; assay: Antimicrobial activity against multidrug resistant Enterobacter aerogenes isolate 23 by broth dilution method in presence of 26.3 mg/L efflux pump inhibitor phenylalanine-arginine-beta-naphthylamide
[16] = test system: Klebsiella pneumoniae; assay: Antimicrobial activity against multidrug resistant Klebsiella pneumoniae isolate 1 by broth dilution method
[17] = test system: Klebsiella pneumoniae; assay: Antimicrobial activity against multidrug resistant Klebsiella pneumoniae isolate 8 by broth dilution method in presence of 26.3 mg/L efflux pump inhibitor phenylalanine-arginine-beta-naphthylamide
[18] = test system: Klebsiella pneumoniae; assay: Antimicrobial activity against multidrug resistant Klebsiella pneumoniae isolate 14 by broth dilution method in presence of 26.3 mg/L efflux pump inhibitor phenylalanine-arginine-beta-naphthylamide
[19] = test system: Klebsiella aerogenes; assay: Antimicrobial activity against multidrug resistant Enterobacter aerogenes isolate 2 by broth dilution method
[20] = test system: Klebsiella pneumoniae; assay: Antimicrobial activity against multidrug resistant Klebsiella pneumoniae isolate 7 by broth dilution method in presence of 26.3 mg/L efflux pump inhibitor phenylalanine-arginine-beta-naphthylamide
[21] = test system: Klebsiella pneumoniae; assay: Antimicrobial activity against multidrug resistant Klebsiella pneumoniae isolate 2 by broth dilution method in presence of 26.3 mg/L efflux pump inhibitor phenylalanine-arginine-beta-naphthylamide
[22] = test system: Klebsiella aerogenes; assay: Antimicrobial activity against multidrug resistant Enterobacter aerogenes isolate 1 by broth dilution method in presence of 26.3 mg/L efflux pump inhibitor phenylalanine-arginine-beta-naphthylamide
[23] = test system: Klebsiella pneumoniae; assay: Antimicrobial activity against multidrug resistant Klebsiella pneumoniae isolate 13 by broth dilution method
[24] = test system: Klebsiella aerogenes; assay: Antimicrobial activity against multidrug resistant Enterobacter aerogenes isolate 7 by broth dilution method
[25] = test system: Klebsiella aerogenes; assay: Antimicrobial activity against multidrug resistant Enterobacter aerogenes isolate 14 by broth dilution method in presence of 26.3 mg/L efflux pump inhibitor phenylalanine-arginine-beta-naphthylamide
[26] = test system: Klebsiella aerogenes; assay: Antimicrobial activity against multidrug resistant Enterobacter aerogenes isolate 11 by broth dilution method in presence of 26.3 mg/L efflux pump inhibitor phenylalanine-arginine-beta-naphthylamide
[27] = test system: Klebsiella pneumoniae; assay: Antimicrobial activity against multidrug resistant Klebsiella pneumoniae isolate 11 by broth dilution method in presence of 26.3 mg/L efflux pump inhibitor phenylalanine-arginine-beta-naphthylamide
[28] = test system: Klebsiella pneumoniae; assay: Antimicrobial activity against multidrug resistant Klebsiella pneumoniae isolate 10 by broth dilution method
[29] = test system: Klebsiella aerogenes; assay: Antimicrobial activity against multidrug resistant Enterobacter aerogenes isolate 21 by broth dilution method in presence of 26.3 mg/L efflux pump inhibitor phenylalanine-arginine-beta-naphthylamide
[30] = test system: Klebsiella pneumoniae; assay: Antimicrobial activity against multidrug resistant Klebsiella pneumoniae isolate 14 by broth dilution method
[31] = test system: Klebsiella aerogenes; assay: Antimicrobial activity against multidrug resistant Enterobacter aerogenes isolate 22 by broth dilution method in presence of 26.3 mg/L efflux pump inhibitor phenylalanine-arginine-beta-naphthylamide
[32] = test system: Klebsiella aerogenes; assay: Antimicrobial activity against multidrug resistant Enterobacter aerogenes isolate 12 by broth dilution method
[33] = test system: Klebsiella aerogenes; assay: Antimicrobial activity against multidrug resistant Enterobacter aerogenes isolate 10 by broth dilution method in presence of 26.3 mg/L efflux pump inhibitor phenylalanine-arginine-beta-naphthylamide
[34] = test system: Klebsiella aerogenes; assay: Antimicrobial activity against multidrug resistant Enterobacter aerogenes isolate 4 by broth dilution method in presence of 26.3 mg/L efflux pump inhibitor phenylalanine-arginine-beta-naphthylamide
[35] = test system: Klebsiella pneumoniae; assay: Antimicrobial activity against multidrug resistant Klebsiella pneumoniae isolate 4 by broth dilution method
[36] = test system: Klebsiella pneumoniae; assay: Antimicrobial activity against multidrug resistant Klebsiella pneumoniae isolate 11 by broth dilution method
[37] = test system: Klebsiella pneumoniae; assay: Antimicrobial activity against multidrug resistant Klebsiella pneumoniae isolate 5 by broth dilution method
[38] = test system: Klebsiella aerogenes; assay: Antimicrobial activity against multidrug resistant Enterobacter aerogenes isolate 13 by broth dilution method
[39] = test system: Klebsiella aerogenes; assay: Antimicrobial activity against multidrug resistant Enterobacter aerogenes isolate 3 by broth dilution method in presence of 26.3 mg/L efflux pump inhibitor phenylalanine-arginine-beta-naphthylamide
[40] = test system: Klebsiella aerogenes; assay: Antimicrobial activity against multidrug resistant Enterobacter aerogenes isolate 2 by broth dilution method in presence of 26.3 mg/L efflux pump inhibitor phenylalanine-arginine-beta-naphthylamide
[41] = test system: Klebsiella aerogenes; assay: Antimicrobial activity against multidrug resistant Enterobacter aerogenes ATCC 15038 by broth dilution method
[42] = test system: Klebsiella aerogenes; assay: Antimicrobial activity against multidrug resistant Enterobacter aerogenes isolate 18 by broth dilution method in presence of 26.3 mg/L efflux pump inhibitor phenylalanine-arginine-beta-naphthylamide
[43] = test system: Klebsiella pneumoniae; assay: Antimicrobial activity against multidrug resistant Klebsiella pneumoniae isolate 1 by broth dilution method in presence of 26.3 mg/L efflux pump inhibitor phenylalanine-arginine-beta-naphthylamide
[44] = test system: Klebsiella pneumoniae; assay: Antimicrobial activity against multidrug resistant Klebsiella pneumoniae isolate 8 by broth dilution method
[45] = test system: Klebsiella aerogenes; assay: Antimicrobial activity against multidrug resistant Enterobacter aerogenes ATCC 15038 by broth dilution method in presence of 26.3 mg/L efflux pump inhibitor phenylalanine-arginine-beta-naphthylamide
[46] = test system: Klebsiella pneumoniae; assay: Antimicrobial activity against multidrug resistant Klebsiella pneumoniae isolate 2 by broth dilution method
[47] = test system: Klebsiella pneumoniae; assay: Antimicrobial activity against multidrug resistant Klebsiella pneumoniae ATCC 11296 by broth dilution method in presence of 26.3 mg/L efflux pump inhibitor phenylalanine-arginine-beta-naphthylamide
[48] = test system: Klebsiella aerogenes; assay: Antimicrobial activity against multidrug resistant Enterobacter aerogenes isolate 25 by broth dilution method
[49] = test system: Klebsiella aerogenes; assay: Antimicrobial activity against multidrug resistant Enterobacter aerogenes isolate 17 by broth dilution method in presence of 26.3 mg/L efflux pump inhibitor phenylalanine-arginine-beta-naphthylamide

SMILES: C[C@@H]1CN(c2c(F)c(N)c3c(=O)c(C(=O)O)cn(C4CC4)c3c2F)C[C@H](C)N1 [SPARFLOXACIN]
- MIC [1]: 256 µg/mL (≈ 652 µM)
- MIC [2]: 4 µg/mL
- MIC [3]: ≤ 0.06 µg/mL
- MIC [4]: 256 µg/mL (≈ 652 µM)
- MIC [5]: 256 µg/mL (≈ 652 µM)
- MIC [6]: 64 µg/mL (≈ 163 µM)
- MIC [7]: 128 µg/mL (≈ 326 µM)
- MIC [8]: 128 µg/mL (≈ 326 µM)
- MIC [9]: 8 µg/mL
- MIC [10]: 8 µg/mL
- MIC [11]: 8 µg/mL
- MIC [12]: 4 µg/mL
- MIC [13]: 128 µg/mL (≈ 326 µM)
- MIC [14]: 256 µg/mL (≈ 652 µM)
- MIC [15]: 4 µg/mL
- MIC [16]: 0.25 µg/mL (≈ 0.637 µM)
- MIC [17]: ≤ 0.06 µg/mL
- MIC [18]: ≤ 0.06 µg/mL
- MIC [19]: 128 µg/mL (≈ 326 µM)
- MIC [20]: ≤ 0.06 µg/mL
- MIC [21]: ≤ 0.06 µg/mL
- MIC [22]: 8 µg/mL
- MIC [23]: 2.1 µg/mL (≈ 5.35 µM)
- MIC [24]: 128 µg/mL (≈ 326 µM)
- MIC [25]: 8 µg/mL
- MIC [26]: 4 µg/mL
- MIC [27]: 2 µg/mL
- MIC [28]: 8 µg/mL (≈ 20.4 µM)
- MIC [29]: 32 µg/mL
- MIC [30]: 2 µg/mL (≈ 5.1 µM)
- MIC [31]: 8 µg/mL
- MIC [32]: 128 µg/mL (≈ 326 µM)
- MIC [33]: 8 µg/mL
- MIC [34]: 8 µg/mL
- MIC [35]: 8 µg/mL (≈ 20.4 µM)
- MIC [36]: 8 µg/mL (≈ 20.4 µM)
- MIC [37]: 0.125 µg/mL (≈ 0.319 µM)
- MIC [38]: 256 µg/mL (≈ 652 µM)
- MIC [39]: 8 µg/mL
- MIC [40]: 8 µg/mL
- MIC [41]: ≤ 0.06 µg/mL
- MIC [42]: 16 µg/mL
- MIC [43]: 0.25 µg/mL
- MIC [44]: 0.125 µg/mL (≈ 0.319 µM)
- MIC [45]: ≤ 0.06 µg/mL
- MIC [46]: 2 µg/mL (≈ 5.1 µM)
- MIC [47]: ≤ 0.06 µg/mL
- MIC [48]: 128 µg/mL (≈ 326 µM)
- MIC [49]: 16 µg/mL

SMILES: O=C(N[C@H](CO)[C@H](O)c1ccc([N+](=O)[O-])cc1)C(Cl)Cl [CHLORAMPHENICOL]
- MIC [1]: 1020 µg/mL (≈ 3170 µM)
- MIC [2]: 64 µg/mL
- MIC [3]: 2 µg/mL
- MIC [4]: 1020 µg/mL (≈ 3170 µM)
- MIC [5]: 1020 µg/mL (≈ 3170 µM)
- MIC [6]: 512 µg/mL (≈ 1580 µM)
- MIC [7]: 512 µg/mL (≈ 1580 µM)
- MIC [8]: 512 µg/mL (≈ 1580 µM)
- MIC [9]: 64 µg/mL
- MIC [10]: 64 µg/mL
- MIC [11]: 64 µg/mL
- MIC [12]: 4 µg/mL
- MIC [13]: 1020 µg/mL (≈ 3170 µM)
- MIC [14]: 512 µg/mL (≈ 1580 µM)
- MIC [15]: 64 µg/mL
- MIC [16]: 8 µg/mL (≈ 24.8 µM)
- MIC [17]: 2 µg/mL
- MIC [18]: 2 µg/mL
- MIC [19]: 512 µg/mL (≈ 1580 µM)
- MIC [20]: 2 µg/mL
- MIC [21]: 64 µg/mL
- MIC [22]: 128 µg/mL
- MIC [23]: 128 µg/mL (≈ 396 µM)
- MIC [24]: 1020 µg/mL (≈ 3170 µM)
- MIC [25]: 64 µg/mL
- MIC [26]: 64 µg/mL
- MIC [27]: 4 µg/mL
- MIC [28]: 4 µg/mL (≈ 12.4 µM)
- MIC [29]: 128 µg/mL
- MIC [31]: 128 µg/mL
- MIC [32]: 1020 µg/mL (≈ 3170 µM)
- MIC [33]: 128 µg/mL
- MIC [34]: 128 µg/mL
- MIC [35]: 4 µg/mL (≈ 12.4 µM)
- MIC [36]: 8 µg/mL (≈ 24.8 µM)
- MIC [37]: 32 µg/mL (≈ 99 µM)
- MIC [38]: 1020 µg/mL (≈ 3170 µM)
- MIC [39]: 128 µg/mL
- MIC [40]: 64 µg/mL
- MIC [41]: 2 µg/mL (≈ 6.19 µM)
- MIC [42]: 4 µg/mL
- MIC [43]: 8 µg/mL
- MIC [44]: 32 µg/mL (≈ 99 µM)
- MIC [45]: 1 µg/mL
- MIC [46]: 256 µg/mL (≈ 792 µM)
- MIC [47]: 2 µg/mL
- MIC [48]: 512 µg/mL (≈ 1580 µM)
- MIC [49]: 64 µg/mL
